≈ marks a conversion by molar mass, not a printed value.
How the values were obtained:
[1] = Apparent permeability across apical to basolateral membrane in human Caco2 cells at 10 uM measured after 2 hrs by UPLC-MS/MS analysis; settings: caco-2, 2 h
[2] = Apparent permeability across basolateral to apical membrane in human Caco2 cells at 10 uM measured after 2 hrs by UPLC-MS/MS analysis; settings: caco-2, 2 h
physchem = settings: 1% DMSO : 99% PBS buffer solution
[3] = molecular target: T1, Bifunctional epoxide hydrolase 2 (Homo sapiens, UniProt P34913); assay: Inhibition of recombinant human liver soluble epoxide hydrolase expressed in baculovirus infected Sf21 cells using NEPC as substrate by fluorescence based assay; assay type: cell-based
T1 sequence (P34913 whole entry): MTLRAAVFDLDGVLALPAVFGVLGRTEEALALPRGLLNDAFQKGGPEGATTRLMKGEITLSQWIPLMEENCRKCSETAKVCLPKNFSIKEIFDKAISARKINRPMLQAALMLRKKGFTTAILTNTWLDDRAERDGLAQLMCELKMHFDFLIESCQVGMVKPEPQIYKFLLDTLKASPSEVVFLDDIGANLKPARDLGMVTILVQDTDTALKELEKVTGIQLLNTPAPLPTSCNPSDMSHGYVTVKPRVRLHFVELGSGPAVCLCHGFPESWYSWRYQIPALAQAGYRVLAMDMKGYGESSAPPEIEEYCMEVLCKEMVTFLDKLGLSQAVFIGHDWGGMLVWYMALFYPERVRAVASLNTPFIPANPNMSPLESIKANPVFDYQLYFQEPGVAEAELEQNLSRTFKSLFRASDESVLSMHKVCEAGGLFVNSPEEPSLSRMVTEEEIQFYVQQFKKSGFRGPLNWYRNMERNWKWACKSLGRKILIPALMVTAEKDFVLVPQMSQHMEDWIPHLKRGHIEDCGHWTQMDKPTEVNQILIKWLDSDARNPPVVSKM

[4] = Microsomal stability in human microsomes assessed as parent compound remaining in presence of NADP, glucose-6-phosphate and glucose-6-phosphate dehydrogenase measured after 60 mins by UPLC-MS/MS analysis
[5] = molecular target: T2, Bifunctional epoxide hydrolase 2 (Mus musculus, UniProt P34914); assay: Inhibition of murine soluble epoxide hydrolase expressed in baculovirus infected Sf21 cells using NEPC as substrate by fluorescence based assay; assay type: cell-based
T2 sequence (P34914 whole entry): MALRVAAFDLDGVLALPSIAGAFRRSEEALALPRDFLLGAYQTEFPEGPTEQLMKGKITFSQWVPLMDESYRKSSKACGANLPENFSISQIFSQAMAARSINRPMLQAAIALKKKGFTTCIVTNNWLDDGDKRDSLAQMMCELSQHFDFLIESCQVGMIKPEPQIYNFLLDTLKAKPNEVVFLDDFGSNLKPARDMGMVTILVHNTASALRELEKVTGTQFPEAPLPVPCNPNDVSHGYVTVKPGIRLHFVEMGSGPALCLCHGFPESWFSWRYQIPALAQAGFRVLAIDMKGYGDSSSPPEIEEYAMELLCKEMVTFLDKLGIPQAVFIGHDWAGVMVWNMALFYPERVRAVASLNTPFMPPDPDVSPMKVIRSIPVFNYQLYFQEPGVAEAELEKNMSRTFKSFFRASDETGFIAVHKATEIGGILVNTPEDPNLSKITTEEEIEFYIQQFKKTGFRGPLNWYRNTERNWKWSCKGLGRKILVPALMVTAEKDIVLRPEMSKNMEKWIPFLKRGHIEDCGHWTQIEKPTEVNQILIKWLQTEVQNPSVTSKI

[6] = Efflux ratio of apparent permeability across basolateral to apical membrane over apical to basolateral membrane in human Caco2 cells at 10 uM measured after 2 hrs by UPLC-MS/MS analysis; settings: caco-2, 2 h

## O=C(Nc1ccc(F)c(F)c1F)NC12CC3CC(CC(C3)C1)C2
[1]
  Papp: 1.18 ×10⁻⁶ cm/s
[2]
  Papp: 0.18 ×10⁻⁶ cm/s
physchem
  solubility kinetic at 2 h: 57 µM (≈ 18.5 µg/mL)

## CC(=O)N1CCC(NC(=O)NC23CC4CC(CC2C4)C3)CC1
[3]
  IC50: 21.7 nM
[4]
  remaining at 1 h: 88.7%

## CC12CC3CC1(C)CC3(NC(=O)Nc1ccc(F)c(F)c1F)C2
[3]
  IC50: 0.5 nM
[4]
  remaining at 1 h: 30%
physchem
  solubility kinetic at 2 h: 66 µM (≈ 21.4 µg/mL)

## CC12CC3CC1(C)CC3(CNC(=O)Nc1ccc(F)c(F)c1F)C2
[3]
  IC50: 0.4 nM

## CC(=O)N1CCC(NC(=O)NC23CC4(C)CC2CC4(C)C3)CC1
[3]
  IC50: 6.5 nM
[5]
  IC50: 3.3 nM
[4]
  remaining at 1 h: 59.3%
[1]
  Papp: 15.92 ×10⁻⁶ cm/s
[2]
  Papp: 18.02 ×10⁻⁶ cm/s
[6]
  Ratio: 1.1
physchem
  solubility kinetic at 2 h: > 100 µM

## CC(=O)N1CCC(NC(=O)NC2C3CC4C5CC6CC4C2C(C6)C5C3)CC1 (stereo unspecified)
[3]
  IC50: 3.4 nM
[5]
  IC50: 5 nM
[4]
  remaining at 1 h: 0%
[1]
  Papp: 15.62 ×10⁻⁶ cm/s
[2]
  Papp: 14.69 ×10⁻⁶ cm/s
[6]
  Ratio: 1
physchem
  solubility kinetic at 2 h: 86 µM (≈ 32 µg/mL)

## O=C(NC1C2CC3C4CC5CC3C1C(C5)C4C2)N[C@H]1CC[C@H](Oc2ccc(C(=O)O)cc2)CC1 (stereo partly specified)
[3]
  IC50: 0.5 nM
[4]
  remaining at 1 h: 14.6%
[1]
  Papp: 0.31 ×10⁻⁶ cm/s
[2]
  Papp: 6.75 ×10⁻⁶ cm/s
[6]
  Ratio: 22.2
physchem
  solubility kinetic at 2 h: 7 µM (≈ 3.25 µg/mL)

## CC(=O)N1CCC(NC(=O)NC23CC4CC(CC(C4)C2)C3)CC1 [AR9281]
physchem
  solubility kinetic at 2 h: > 100 µM

## C[C@]12CC[C@H]3[C@@H](CCC4=CC(=O)CC[C@@]43C)[C@@H]1CC[C@@H]2O [TESTOSTERONE]
[4]
  remaining at 1 h: 22.4%
